Laboratory results from patent publication US11452710B1, “Micronutrient and plant extract composition and method of improving bone health” (priority 2022, dated 2022).

System: alkaline phosphatase (ALP)
Conditions: 0.1-5 μg/ml, 48 h at 37° C., n=4; compared to the control and to the most stimulating agents (boron line 10, MSM line 15)
Experimental: In vitro differentiation (alkaline phosphatase activity (ALP) and core-binding factor alpha 1 (Cbfa-1) as a marker) assay: Human osteoblasts (1×10^5 cells/well of a 96-well plate) in a 100 μl cell culture medium were exposed to select micronutrients and plant extracts (0.1-5 μg/ml) for 48 h at 37° C., and lysed with assay buffer. Subsequently, 5 mM p-nitrophenyl phosphate (pNPP), as a phosphate substrate for alkaline phosphates, was added into all experimental wells for 1 h, followed by a stop solution. The absorbance was measured at 450 nm within 5 min. using a microplate reader.

Row | Molecule | alkaline phosphatase (ALP) activity level in human osteoblasts
1 | CS(C)(=O)=O [MSM, methylsulfonylmethane] | most stimulating agents
2 | boron | most stimulating agents
